Laboratory results published in PubChem BioAssay (NCI).
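All cell lines were grown in 96-well plates and treated with compound for 48 hours. Definition used: TGI = concentration required for complete inhibition of growth.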

How the values were obtained:
Test in all cases: NCI-60 cell line screen, 48 h
A498 renal = system: A498 renal
A549 NSCLC = system: A549 NSCLC
HCT-116 colon = system: HCT-116 colon
HOP-62 NSCLC = system: HOP-62 NSCLC
SNB-19 CNS = system: SNB-19 CNS
OVCAR-3 ovarian = system: OVCAR-3 ovarian
OVCAR-4 ovarian = system: OVCAR-4 ovarian
RXF 393 renal = system: RXF 393 renal
UACC-257 melanoma = system: UACC-257 melanoma
NCI-H226 lung = system: NCI-H226 lung
EKVX NSCLC = system: EKVX NSCLC
NCI-H23 lung = system: NCI-H23 lung
UACC-62 melanoma = system: UACC-62 melanoma
SN12C renal = system: SN12C renal
MOLT-4 leukemia = system: MOLT-4 leukemia
SR leukemia = system: SR leukemia
K-562 leukemia = system: K-562 leukemia
SW-620 colon = system: SW-620 colon
DMS 114 small cell lung = system: DMS 114 small cell lung
SK-MEL-28 melanoma = system: SK-MEL-28 melanoma
SF-539 CNS = system: SF-539 CNS
MALME-3M melanoma = system: MALME-3M melanoma
TK-10 renal = system: TK-10 renal
NCI-H460 lung = system: NCI-H460 lung
SK-OV-3 ovarian = system: SK-OV-3 ovarian
UO-31 renal = system: UO-31 renal
SF-295 CNS = system: SF-295 CNS
OVCAR-5 ovarian = system: OVCAR-5 ovarian
RXF-631 renal = system: RXF-631 renal
M14 melanoma = system: M14 melanoma
IGROV1 ovarian = system: IGROV1 ovarian
HL-60(TB) leukemia = system: HL-60(TB) leukemia
KM12 colon = system: KM12 colon
LXFL 529 NSCLC = system: LXFL 529 NSCLC
HT29 colon = system: HT29 colon
U251 CNS = system: U251 CNS
KM20L2 colon = system: KM20L2 colon
XF 498 CNS = system: XF 498 CNS
HCT-15 colon = system: HCT-15 colon
SF-268 CNS = system: SF-268 CNS
HCC-2998 colon = system: HCC-2998 colon
LOX IMVI melanoma = system: LOX IMVI melanoma
ACHN renal = system: ACHN renal
DLD-1 colon = system: DLD-1 colon
SNB-78 CNS = system: SNB-78 CNS
SNB-75 CNS = system: SNB-75 CNS
NCI/ADR-RES ovarian = system: NCI/ADR-RES ovarian
DMS 273 small cell lung = system: DMS 273 small cell lung
MCF7 breast = system: MCF7 breast
HOP-92 NSCLC = system: HOP-92 NSCLC
T-47D breast = system: T-47D breast
MDA-MB-435 = system: MDA-MB-435
CCRF-CEM leukemia = system: CCRF-CEM leukemia
SK-MEL-5 melanoma = system: SK-MEL-5 melanoma
MDA-N = system: MDA-N
MDA-MB-231 breast = system: MDA-MB-231 breast
CAKI-1 renal = system: CAKI-1 renal
DU-145 prostate = system: DU-145 prostate
COLO 205 colon = system: COLO 205 colon
BT-549 breast = system: BT-549 breast
786-0 renal = system: 786-0 renal
RPMI-8226 leukemia = system: RPMI-8226 leukemia
HS 578T breast = system: HS 578T breast
M19-MEL melanoma = system: M19-MEL melanoma
SK-MEL-2 melanoma = system: SK-MEL-2 melanoma
PC-3 prostate = system: PC-3 prostate
NCI-H522 lung = system: NCI-H522 lung
OVCAR-8 ovarian = system: OVCAR-8 ovarian

SMILES: O=C1NC2(CCCCC2)C2CCCCCC12 (stereo not drawn)
- TGI (A498 renal): > 100 µM
- TGI (A549 NSCLC): > 100 µM
- TGI (HCT-116 colon): > 100 µM
- TGI (HOP-62 NSCLC): > 100 µM
- TGI (SNB-19 CNS): > 100 µM
- TGI (OVCAR-3 ovarian): > 100 µM
- TGI (OVCAR-4 ovarian): > 100 µM
- TGI (RXF 393 renal): > 100 µM
- TGI (UACC-257 melanoma): > 100 µM
- TGI (NCI-H226 lung): > 100 µM
- TGI (EKVX NSCLC): > 100 µM
- TGI (NCI-H23 lung): > 100 µM
- TGI (UACC-62 melanoma): > 100 µM
- TGI (SN12C renal): > 100 µM
- TGI (MOLT-4 leukemia): > 100 µM
- TGI (SR leukemia): > 100 µM
- TGI (K-562 leukemia): > 100 µM
- TGI (SW-620 colon): > 100 µM
- TGI (DMS 114 small cell lung): > 100 µM
- TGI (SK-MEL-28 melanoma): > 100 µM
- TGI (SF-539 CNS): > 100 µM
- TGI (MALME-3M melanoma): > 100 µM
- TGI (TK-10 renal): > 100 µM
- TGI (NCI-H460 lung): > 100 µM
- TGI (SK-OV-3 ovarian): > 100 µM
- TGI (UO-31 renal): > 100 µM
- TGI (SF-295 CNS): > 100 µM
- TGI (OVCAR-5 ovarian): > 100 µM
- TGI (RXF-631 renal): > 100 µM
- TGI (M14 melanoma): > 100 µM
- TGI (IGROV1 ovarian): > 100 µM
- TGI (HL-60(TB) leukemia): > 100 µM
- TGI (KM12 colon): > 100 µM
- TGI (LXFL 529 NSCLC): > 100 µM
- TGI (HT29 colon): > 100 µM
- TGI (U251 CNS): > 100 µM
- TGI (KM20L2 colon): > 100 µM
- TGI (XF 498 CNS): > 100 µM
- TGI (HCT-15 colon): > 100 µM
- TGI (SF-268 CNS): > 100 µM
- TGI (HCC-2998 colon): > 100 µM
- TGI (LOX IMVI melanoma): > 100 µM
- TGI (ACHN renal): > 100 µM
- TGI (DLD-1 colon): > 100 µM
- TGI (SNB-78 CNS): > 100 µM
- TGI (SNB-75 CNS): > 100 µM

SMILES: O=C1c2c(nc3ccccc3c2-c2ccccc2)CN1Nc1ccccn1
- TGI (A498 renal): 18.1 µM
- TGI (A549 NSCLC): > 100 µM
- TGI (HCT-116 colon): > 100 µM
- TGI (NCI/ADR-RES ovarian): > 100 µM
- TGI (DMS 273 small cell lung): > 100 µM
- TGI (MCF7 breast): > 100 µM
- TGI (HOP-62 NSCLC): > 100 µM
- TGI (SNB-19 CNS): > 100 µM
- TGI (HOP-92 NSCLC): > 79.4 µM
- TGI (OVCAR-3 ovarian): > 100 µM
- TGI (T-47D breast): > 100 µM
- TGI (OVCAR-4 ovarian): > 100 µM
- TGI (RXF 393 renal): > 100 µM
- TGI (UACC-257 melanoma): > 100 µM
- TGI (NCI-H226 lung): > 89 µM
- TGI (EKVX NSCLC): > 100 µM
- TGI (MDA-MB-435): > 100 µM
- TGI (NCI-H23 lung): > 100 µM
- TGI (UACC-62 melanoma): > 100 µM
- TGI (SN12C renal): > 100 µM
- TGI (MOLT-4 leukemia): > 100 µM
- TGI (CCRF-CEM leukemia): > 100 µM
- TGI (SR leukemia): > 100 µM
- TGI (SK-MEL-5 melanoma): > 100 µM
- TGI (MDA-N): > 100 µM
- TGI (K-562 leukemia): > 100 µM
- TGI (MDA-MB-231 breast): > 100 µM
- TGI (CAKI-1 renal): > 86.9 µM
- TGI (SW-620 colon): > 100 µM
- TGI (DU-145 prostate): > 100 µM
- TGI (DMS 114 small cell lung): > 76.1 µM
- TGI (SK-MEL-28 melanoma): > 100 µM
- TGI (SF-539 CNS): 99.5 µM
- TGI (MALME-3M melanoma): > 100 µM
- TGI (COLO 205 colon): > 100 µM
- TGI (TK-10 renal): > 100 µM
- TGI (NCI-H460 lung): > 83.2 µM
- TGI (SK-OV-3 ovarian): > 100 µM
- TGI (BT-549 breast): > 100 µM
- TGI (UO-31 renal): 51.6 µM
- TGI (786-0 renal): > 93.1 µM
- TGI (SF-295 CNS): > 100 µM
- TGI (OVCAR-5 ovarian): > 100 µM
- TGI (RPMI-8226 leukemia): > 100 µM
- TGI (RXF-631 renal): 50.7 µM
- TGI (HS 578T breast): 67.4 µM
- TGI (M14 melanoma): > 100 µM
- TGI (IGROV1 ovarian): > 100 µM
- TGI (M19-MEL melanoma): > 100 µM
- TGI (HL-60(TB) leukemia): > 100 µM
- TGI (KM12 colon): > 100 µM
- TGI (LXFL 529 NSCLC): > 100 µM
- TGI (HT29 colon): > 100 µM
- TGI (U251 CNS): > 100 µM
- TGI (SK-MEL-2 melanoma): > 100 µM
- TGI (PC-3 prostate): > 100 µM
- TGI (XF 498 CNS): > 100 µM
- TGI (NCI-H522 lung): > 100 µM
- TGI (HCT-15 colon): > 100 µM
- TGI (SF-268 CNS): > 100 µM
- TGI (HCC-2998 colon): > 100 µM
- TGI (LOX IMVI melanoma): > 100 µM
- TGI (ACHN renal): > 100 µM
- TGI (DLD-1 colon): > 100 µM
- TGI (SNB-78 CNS): > 42.3 µM
- TGI (SNB-75 CNS): > 92.8 µM
- TGI (OVCAR-8 ovarian): > 87.1 µM
